# Assay results published in patent US8618169B2, “Derivatives of N-phenylanthranilic acid and 2-benzimidazolone as potassium channel and/or neuron activity modulators” (Ramot at Tel-Aviv University Ltd., priority 2002, dated 2013).
# Values joined by “and” are separate entries in the source; they are usually repeats but may differ in a detail not shown here. Identical values can stand only once.
# Assays:
# [1] = molecular target: T1, KCNQ2/3 channels (Homo sapiens, UniProt O43525+O43526); experiment: KCNQ2/3 current in transfected CHO cells, whole-cell patch-clamp; format: cell-based
# T1 construct: expressed in transfected cells; host or cells: CHO cells
# [2] = test system: electroshock-induced seizures; experiment: Maximal electroshock seizure (MES) test in ICR mice; format: in vivo
# Experimental: All animals were treated in accordance with the Guide for the Care and Use of Laboratory Animals as adopted and promulgated by the U.S. National Institutes of Health. The procedures followed for experimentation and maintenance of the animals were approved by the animal research ethics committee of Tel Aviv University and in accordance with the Guide for the Care and Use of Laboratory Animals (1996. National Academy of Sciences, Washington D.C). […] electroshock were induced in adult mice by means of two transcorneal electrodes delivering an alternative current of 50 mA at 60 Hz for 0.2 sec using rodent shocker (Hugo Sachs Electronik, type 221). […] The tested compounds were dissolved in 0.9% saline were administered intraperitoneally either 30 minutes or 2 hours before the electroshock was performed. Animals failing to show tonic hind limb extension were scored as protected and were expressed in percentage.
# Five groups of 10 ICR mice each received intraperitoneally saline (control) or meclofenamic acid (Compound 1) at 25 mg/kg, 50 mg/kg, 100 mg/kg and 150 mg/kg and were subjected 30 minutes later to an electric shock (50 mA, 0.2 second duration, 60 Hz).
# In view of the strong depressing activity of Compound 6 on cortical neurons, the anticonvulsant activity in mice subjected to seizures produced by electroshock was examined, using the MES test described above. Compound 6 dissolved in saline was injected intraperitoneally (in a volume of 10 ml/kg) at doses ranging from 6 mg/kg to 20 mg/kg to ICR adult mice and its anticonvulsant activity was compared with saline. Twenty minutes after drug administration, seizures were produced by electroshock (50 mA, 0.2 second duration, 60 Hz).
# [3] = test system: rat cortical neurons; experiment: Evoked and spontaneous action potential activity of cultured rat cortical neurons, current-clamp; format: cell-based
# [4] = molecular target: T2, M-current (Rattus norvegicus, UniProt O88943+O88944); experiment: Native M-current of cultured rat cortical neurons, voltage-clamp; format: cell-based; conditions: cortical neurons, from −50 mV to −70 mV
# T2 construct: the native M-current from pyramidal-like neurons was recorded; endogenous in cells; host or cells: primary cortical neurons from Sprague Dawley rat embryos (E18)
# [5] = test system: COX (Cyclooxygenase); experiment: COX activity assay in C-26 cells (PGE2 radioimmunoassay); format: cell-based; conditions: for IC50: C-26 cells
# Experimental: C-26 cells were plated on 24-well plates using RPMI medium. Different concentrations of the tested compound were added thereto and the cells were incubated for 30 minutes at 37° C. 30 μM exogenic arachidonic acid was then added and incubation was continued for 20 minutes (37° C.), so as to allow the cells to synthesize PGE2. Indomethacin was added thereafter (10 μM), to stop and completely block the activity. Then, the upper solution was removed into clean 24-wells. To the remained cells 100 μl NaOH (1M) were added to induce cytolysis, and the cells were left for later protein measurement. The solution removed to the new 24-well was used for a radioimmunoassay. The COX activity was estimated by calculating the ng PGE2/mg protein parameter.
# [6] = test system: small DRG neurons; experiment: Spiking activity of DRG neurons, current-clamp; format: cell-based, mouse; conditions: 15 μM; 75 pA, 400 ms
# Experimental: Dorsal root ganglion (DRG) neurons were dissected from 2-4 days-old ICR mice that were decapitated. DRGs were placed in Hank's balanced saline solution (HBSS) and were prepared by enzymatic dissociation. Briefly, cells were incubated for 30 minutes in 5 mg/ml dispase (Sigma), 2 mg/ml collagenase type 1A (Sigma) and 0.1 mg/ml DNase (Invitrogen/Gibco) in calcium and magnesium-free HBSS, and the ganglia were thereafter mechanically triturated with a firepolished glass Pasteur pipette. The ganglia were then centrifuged for 5 minutes at 80×g and resuspended in DMEM supplemented with 2 mM L-glutamine, 16.5 mM NaCO3, 6 g/l glucose, 5 ml penicillin/streptomycin and 10% fetal calf serum. For electrophysiological recording, dissociated neurons were plated on 13 mm glass coverslips previously coated with poly-D-lysine (1 mg/ml) and laminin (10 μg/ml) and were used after 2-6 days in culture.
# For current measurements in CHO cells, recordings were performed 40 hours following transfection, using the whole-cell configuration of the patch-clamp technique [Hamill et al., Nature 294: 462-464 (1981)]. Signals were amplified using an Axopatch 200B patch-clamp amplifier (Axon Instruments, Foster City, Calif., USA), sampled at 2 kHz and filtered at 800 Hz via a 4-pole Bessel low pass filter. Data were acquired using pClamp 8.1 software (Axon Instruments, Foster City, Calif., USA) and an Elonex Pentium III computer in conjunction with a DigiData 1322A interface (Axon Instruments, Foster City, Calif., USA). The patch pipettes were pulled from borosilicate glass (Warner Instrument. Corp., Hamden, Conn., USA) with a resistance of 2-5 MΩ and were filled with (in mM): 130 KCl, 1 MgCl2, 5 K2ATP, 5 EGTA, 10 HEPES, adjusted with KOH at pH 7.4 (290 mOsm). The external solution contained (in [mM]): 140 NaCl, 4 KCl, 1.8 CaCl2, 1.2 MgCl2, 11 glucose, 5.5 HEPES, adjusted with NaOH at pH 7.4 (310 mOsm). Series resistances (3-13 MΩ) were compensated (75-90%) and periodically monitored. […]
# [7] = molecular target: KCNQ2/Q3 (Homo sapiens, UniProt O43525+O43526); experiment: Opener potency on KCNQ2/Q3 by leftward shift of half-activation potential (ΔV50) versus concentration, Hill fit; format: cell-based; set-up: expressed in transfected cells
# [8] = test system: hippocampal pyramidal neurons; experiment: Spontaneous EPSCs of hippocampal pyramidal neuron cultures, voltage-clamp; format: cell-based; conditions: 10 μM
# Experimental: To further determine the synaptic site of M-channel activation by Compound 6, its effects on spontaneous excitatory postsynaptic currents (EPSCs) that could be recorded from dense networks of hippocampal pyramidal neuron cultures was tested.
# In FIGS. 30B and 30C, burst activity before (control), in the presence (Compound 6) and after (Wash) application of 5 μM (FIG. 30B) and 10 μM (FIG. 30C) Compound 6, as recorded at the voltage clamp mode is shown. In FIG. 30D, burst activity before (control) and in the presence of 25 μM Linopirdine is shown. In FIG. 30E, the normalized number of bursts appeared in 180 seconds time period for 5 μM (left panel), 10 μM (mid panel) of Compound 6 and 25 μM linopirdine (right panel) are shown. The holding potential was −70 mV. n=5-6.
# Thus, using the voltage-clamp configuration of the patch-clamp technique, spontaneous EPSCs were isolated at −70 mV (holding potential) in the presence of 10 μM bicuculline and 10 μM picrotoxin to block GABAA receptor-mediated inhibitory postsynaptic currents. As is shown in FIG. 30A, under control conditions, the frequency of EPSCs is variable depending of the density of the hippocampal culture, ranging from 0.4 Hz to 2 Hz. […] However, the majority of the EPSCs measured at −70 mV under the experimental recording conditions are mediated by AMPA receptors as most of the currents are blocked by 10 μM NBQX, leaving only a small fraction EPSC sensitive to the NMDA receptor blocker DL-AP5 (FIG. 30A).
smiles,measurement,setting,value
"CCn1c(=O)[nH]c2ccccc21 [Compound 10, 1-ethyl benzimidazolone]",increase of the current amplitude,"[1]; 100 μM, train protocol, cells stepped to −30 mV",up to 57%
CCCC(CCC)C(=O)[O-].[Na+] [sodium valproate],protection from hind limb extension,"[2]; 500 mg/kg intraperitoneal, 30 minutes before electroshock",fully prevented hind limb extension
O=C(Cc1ccccc1Nc1c(Cl)cccc1Cl)OCCOCCO [Compound 7],effect on evoked and spontaneous cortical neuron activity,[3],depress
same,effect on evoked and spontaneous spiking activity of cortical neurons,[3]; 20 μM,very potent inhibitory activity
same,opener action on recombinant KCNQ2/3 channels (in words),[1]; CHO cells,potent KCNQ2/3 channel opener
same,negative shift in the threshold of M-current activation,[4],approximately 20 mV
same,IC50,[5],11 nM and 11.7 nM
O=C1NC(=O)C(c2ccccc2)(c2ccccc2)N1 [phenyloin],protection from hind limb extension,"[2]; 20 mg/kg intraperitoneal, 30 minutes before electroshock",fully prevented hind limb extension
Cc1cccc(Nc2ccccc2C(=O)NCCOCCO)c1C [Compound 5],effect on evoked and spontaneous cortical neuron activity,[3],depress
same,effect on evoked action potentials,[3]; 25 μM,reversibly inhibited
same,effect on current amplitude,"[1]; 15 μM, at −40 and −50 mV",enhances the current amplitude
same,leftward shift in the voltage-dependence of KCNQ2/3 activation,"[1]; 25 μM, CHO cells",~8 mV
same,V50 of KCNQ2/3 activation with compound,"[1]; 25 μM, CHO cells, control −30.9±4.1 mV",−38.3±1.9 mV
same,effect on deactivation kinetics of KCNQ2/3 channels,[1]; CHO cells,slowed down
same,negative shift in the threshold of M-current activation,[4],approximately 20 mV
same,COX inhibition activity (in words),[5],do not exhibit COX inhibition activity
same,IC50,[5],10300 nM
COCCOCCOC(=O)Cc1ccccc1Nc1c(Cl)cccc1Cl [Compound 8],effect on evoked and spontaneous cortical neuron activity,[3],depress
same,effect on evoked and spontaneous spiking activity of cortical neurons,"[3]; low concentrations (10 μM evoked, 5 μM spontaneous)",potent inhibitory activity
same,opener action on recombinant KCNQ2/3 channels (in words),[1]; CHO cells,only a weak opener action
"O=C(O)Cc1ccccc1Nc1c(Cl)cccc1Cl [Compound 2, diclofenac]",% Protection,"[2]; 25 mg/kg i.p., 30 minutes before electroshock",10 (10) %
same,% Protection,"[2]; 50 mg/kg i.p., 30 minutes before electroshock, listed as Diclofenac",64 (11) %
same,% Protection,"[2]; 50 mg/kg i.p., 30 minutes before electroshock, listed as diclofenac",64%
same,% Protection,"[2]; 50 mg/kg i.p., 2 hours before electroshock",50 (4) %
same,% Protection,"[2]; 100 mg/kg i.p., 30 minutes before electroshock",92 (12) %
same,% Protection,"[2]; 100 mg/kg i.p., 2 hours before electroshock",83 (6) %
same,% Protection,"[2]; 200 mg/kg i.p., 30 minutes before electroshock",100 (15) %
same,% Protection,"[2]; 200 mg/kg i.p., 2 hours before electroshock",100 (6) %
same,ED50,"[2]; Mus musculus, intraperitoneal, 30 minutes or 2 hours before electroshock, 25-200 mg/kg, read-out: ED50 for suppression of tonic extension induced by MES",43 mg/kg
same,effect on evoked action potentials,[3]; 25 μM,no spike could be evoked
same,effect on spontaneous spiking activity,[3]; 25 μM,quickly and reversibly depressed
CN(CCO)C(=O)Cc1ccccc1Nc1c(Cl)cccc1Cl [Compound 9],effect on evoked and spontaneous spiking activity of cortical neurons,[3]; 20 μM,inhibitory activity
same,opener action on recombinant KCNQ2/3 channels (in words),[1]; CHO cells,only a weak opener action
O=C(NCCOCCO)c1ccccc1Nc1cccc(C(F)(F)F)c1 [Compound 4],effect on evoked and spontaneous cortical neuron activity,[3],depress
same,effect on spontaneous spiking activity,[3]; 20 μM,markedly depressed
same,increase of the current amplitude,"[1]; 50 μM, stepped from −85 mV to −40 mV",> 1.5 fold
same,increase of the current amplitude,"[1]; 50 μM, stepped from −85 mV to −50 mV",more than 4 fold
same,opener action on recombinant KCNQ2/3 channels (in words),[1]; CHO cells,potent KCNQ2/3 channel opener
same,negative shift in the threshold of M-current activation,[4],approximately 20 mV
same,IC50,[5],> 30000 nM
"CCOC(=O)Nc1ccc(NCc2ccc(F)cc2)cc1N [retigabine, N-(2-amino-4-(4-fluorobenzylamino)-phenyl)carbamic acid ethyl ester]",effect on trains of evoked spikes,[6],Very similar results
same,EC50,[7],2000 ± 1300 nM
same,Hill coefficient ηH,"[7]; Hill fit, compound alone",1.20±0.30
same,maximum ΔV50,[7]; increasing concentrations co-exposed with 25 μM meclofenamic acid,−32±4 mV
O=C1N(c2ccccc2)c2ccccc2C1(Cc1ccncc1)Cc1ccncc1 [linopirdine],effect on spontaneous spiking activity,[3]; 10 μM,significantly enhanced the frequency of spontaneous spiking
same,frequency of EPSCs,[8],up to 278±41 % of control
Cc1c(Cl)cccc1Nc1ccccc1C(=O)NCCOCCO [Compound 3],increase of the current amplitude,"[1]; 25 μM, train protocol, stepped to −50 mV",up to 299±47%
same,opener action on recombinant KCNQ2/3 channels (in words),[1]; CHO cells,potent KCNQ2/3 potassium channel opening properties
same,IC50,[5],113 nM and 114 nM
